Measured values from patent publication US20090162413A1 (priority 1998, published 2009).

What was measured:
[1] = system: porcine coronary arteries (neointimal hyperplasia); assay: porcine coronary stent model, zotarolimus-eluting BiodivYsio PC stent vs polymer only stent, 28 days (Example 3); format: in vivo; settings: stent eluting zotarolimus from a polymer, porcine coronary artery
[2] = Phase 1 multiple escalating intravenous dose safety and pharmacokinetics, QD for 14 days (Example 7); format: in vivo, human; settings: for median Cmax: predicted 14-day profile; for AUCτ/Dose / Cmax / Cmax/Dose: secondary predicted parameter; for Gamma: terminal elimination rate constant
Method: The present study was designed to evaluate the pharmacokinetics of zotarolimus following multiple dosing and to assess its safety while maximizing systemic exposure of healthy subjects. […] The study investigated pharmacokinetics and safety of zotarolimus in a Phase 1, multiple dose-escalation study following multiple intravenous infusions of 200, 400 and 800 μg doses, every day for fourteen consecutive days in healthy subjects.
Phase 1, multiple-escalating dose, double-blind, placebo-controlled, randomized study. Seventy-two subjects equally divided in 3 once-daily (QD) regimens (200, 400 or 800 μg QD with 16 active and 8 placebo per regimen) were administered a 60-minute QD IV infusion of zotarolimus for 14 consecutive days. Blood samples were collected over 24 hours following the first dose, before dosing on days 10, 11, 12, 13, and for 168 hours following Day 14 dose. Urine samples were collected over 24 hours on days 1, 14, 16, 18 and 20. Blood and urine zotarolimus concentrations were determined using a validated LC/MS/MS method. Pharmacokinetic parameters were determined by compartmental analysis. All Day-AUC0-∞ (area under blood concentration-time curve from time 0 to infinity including all 14 doses) was calculated. Dose and time-linearity and achievement of steady-state were evaluated. Fraction of drug eliminated in urine was determined.
Within each group, subjects were equally divided at the two study sites with each site enrolling 12 subjects (zotarolimus, eight subjects; placebo four subjects). The dosing scheme within each dose group is presented below:
Subjects received, under fasting conditions, a single 60-minute daily (QD) intravenous infusion of 200, 400, or 800 μg of zotarolimus or a matching intravenous infusion of placebo for Groups I, II and III, respectively on Study Days 1 through 14. The drug was administered via a syringe pump connected to a y-site device, which also infused 125-150 mL of 5% aqueous dextrose solution (D5W) over 60 minutes. The groups were dosed sequentially with at least 7 days separating the last dose of the previous group and the first dose of the next group during which time safety data from the previous group was analyzed. Dose escalation was dependent on the safety analysis of the lower dose group.
Five (5)-mL blood samples were collected in potassium EDTA containing tubes to evaluate zotarolimus concentrations prior to dosing (0 hour), and at 0.25, 0.5, 1.0, 1 hour 5 min, 1.25, 1.5, 2, 3, 4, 8, 12, 18 and 24 hours after starting infusion on Study Days 1 and 14. Additional samples were collected at 36, 48, 72, 96, 120, 144 and 168 hours after starting infusion on Study Day 14 and before dosing on Days 10, 11, 12 and 13. Urine was collected in containers without preservatives over the following intervals: 0 to 6, 6 to 12, 12 to 18 and 18 to 24 hours after starting the infusion on Study Days 1, 14, 16, 18 and 20.
Blood and urine concentrations of zotarolimus were determined using a validated liquid/liquid extraction HPLC tandem mass spectrometric method (LC-MS/MS). The lower limit of quantification of zotarolimus was 0.20 ng/mL using 0.3 mL blood sample and 0.50 ng/mL using 0.3 mL urine sample.
Safety was evaluated based on adverse event, physical examination, vital signs, ECG, injection site and laboratory tests assessments
The pharmacokinetic parameter values of zotarolimus were estimated for individual subjects using compartmental analysis. Data from the first dose on Study Day 1, the last dose on Study Day 14 and the trough concentrations on Study Days 10, 11, 12 and 13 were simultaneously modeled for each individual subject. […]

For `CO[C@H]1C[C@@H]2CC[C@@H](C)[C@@](O)(O2)C(=O)C(=O)N2CCCC[C@H]2C(=O)O[C@H]([C@H](C)C[C@@H]2CC[C@H](n3cnnn3)[C@H](OC)C2)CC(=O)[C@H](C)/C=C(\C)[C@@H](O)[C@@H](OC)C(=O)[C@H](C)C[C@H](C)/C=C/C=C/C=C/1C` [zotarolimus], the neointimal hyperplasia [1] was “reduction in neointimal hyperplasia”, the V1 ([2]; 200 μg QD IV infusion 14 days, compartmental, mean ± SD) was 11.4 ± 1.7 L and the “median Cmax” value ([2]; 200 μg QD) was 11.4 ng/mL. It also gave an AUCτ/Dose ([2]; 200 μg QD, mean ± SD) of 0.245 ± 0.031 ng·h/mL/µg, a Cmax ([2]; 200 μg QD, mean ± SD) of 11.2 ± 1.1 ng/mL and a Cmax/Dose ([2]; 200 μg QD, mean ± SD) of 0.056 ± 0.006 ng/mL/µg. The Gamma ([2]; 200 μg QD, mean ± SD) was 0.028 ± 0.005 h − 1, the V1 ([2]; 400 μg QD IV infusion 14 days, compartmental, mean ± SD) was 11.3 ± 1.0 L and the “median Cmax” value ([2]; 400 μg QD) was 22.1 ng/mL. For the same molecule, the AUCτ/Dose ([2]; 400 μg QD, mean ± SD) was 0.260 ± 0.047 ng·h/mL/µg, the Cmax ([2]; 400 μg QD, mean ± SD) was 21.4 ± 2.4 ng/mL and the Cmax/Dose ([2]; 400 μg QD, mean ± SD) was 0.053 ± 0.006 ng/mL/µg. The Gamma ([2]; 400 μg QD, mean ± SD) was 0.022 ± 0.003 h − 1, the V1 ([2]; 800 μg QD IV infusion 14 days, compartmental, mean ± SD) was 13.1 ± 3.2 L and the “fraction of the dose recovered in the urine as unchanged drug” value ([2]; 800 μg QD dose group, 24-hour period on Day 1 and Day 14) was “approximately 0.1%”. For the same molecule, the “median Cmax” value ([2]; 800 μg QD) was 38.9 ng/mL, the AUCτ/Dose ([2]; 800 μg QD, mean ± SD) was 0.224 ± 0.022 ng·h/mL/µg and the Cmax ([2]; 800 μg QD, mean ± SD) was 38.7 ± 6.3 ng/mL. For the same molecule, the Cmax/Dose ([2]; 800 μg QD, mean ± SD) was 0.048 ± 0.008 ng/mL/µg, the Gamma ([2]; 800 μg QD, mean ± SD) was 0.023 ± 0.003 h − 1 and the “evidence of immunosuppression, QTc prolongation or clinically significant adverse events” value ([2]; 200-800 μg QD for 14 days) was “no subject displayed any clinical or biochemical evidence of immunosuppression, QTc prolongation or clinically significant adverse events”. For the same molecule, the “most common treatment-emergent adverse events” value ([2]; 200-800 μg QD for 14 days) was “pain, headache, injection site reaction, dry skin, abdominal pain, diarrhea and rash”, the serious adverse events ([2]; 200-800 μg QD for 14 days) was “no serious adverse events” and the “dose proportionality and time dependence of pharmacokinetics” value ([2]; IV for 14 consecutive days, 200-800 μg QD) was “dose proportional and time invariant”. For the same molecule, the “Steady state for QD dosing reached” value ([2]; QD IV dosing, first trough samples on Day 10) was ≤ 10 days, the tolerability ([2]; multiple doses of 200, 400, and 800 μg for 14 consecutive days) was “generally well tolerated” and the V1 ([2]; range of means over the studied regimens 200-800 μg QD) was 11.3 to 13.1 L. The “zotarolimus dose recovered in the urine” value ([2]; within a 24-hour period post-dose, on average) was 0.1%.
